# Data reported in US5859032A, “Pyridine derivative, anti-ulcer drug, and antibacterial drug” (priority 1996, dated 1999).
# Assays:
# [1] = test system: gastric acid secretion (pylorus-ligated, histamine-stimulated rats); experiment: VOL, TAO: Acid Secretion Inhibition Test In Vivo; set-up: species or system rat (male Crj:Donryu); conditions: rat, 100 mg/kg, oral; histamine 30 mg/kg s.c.
# Method: VOL, TAO: Acid Secretion Inhibition Test In Vivo
# Inhibitory effect on acid secretion in vivo is confirmed.
# Male Crj:Donryu rats (7-week-old) were fasted overnight but allowed free access to water. In each group, 8 to 10 of these rats were used under urethane anesthesia (1.25 g/kg). […] 30 minutes later, the abdomen of each was incised and the pylorus was ligated. 30 minutes after the ligation, 30 mg/kg of histamine dissolved in physiological saline was subcutaneously administered and, 3 hours thereafter, the rat was sacrificed with carbon dioxide. Immediately thereafter, each stomach was removed and the gastric contents were collected and each volume was determined. The total acid output was determined by titration of the gastric juice with 0.1N NaOH.
# With respect to the gastric juice volume (VOL) and the total acid output (TAO), the effects obtained when 100 mg/kg of the sample compound had been administered were expressed as their respective inhibitory rates (%) as follows:
# each inhibitory rate (%)=(1-(value in sample group/value in control
# [2] = test system: stress ulcer formation (rats); experiment: WIS: Restraint and Water Immersion Stress-Induced Ulcer Inhibition Test; format: in vivo, rat (male Crj:SD or Slc:SD); conditions: rat, 100 mg/kg, oral, 7 hours water immersion stress
# Method: WIS: Restraint and Water Immersion Stress-Induced Ulcer Inhibition Test
# The degree of inhibition of the stress ulcer formation is tested.
# Male Crj:SD or Slc:SD rats (6 to 7-week-old) were fasted overnight, but allowed free access to water. Each group has 5 to 8 of these rats. […] To a control group, the vehicle was administered. 10 minutes later, the rats were placed in a stress cage and immersed to the level of xipfoid process in a water bath (21° C.) for 7 hours. At the end of the stress, the rats were sacrificed by inhalation of ether or carbon dioxide. Then, the stomach of each was removed, inflated by injecting 10 ml of 5% formalin neutral buffer solution, and immersed in 1% formalin neutral buffer solution for 30 minutes or more to be fixed. The stomach was incised along the greater curvature and then the length of each erosion in the glandular portion was determined under dissecting microscope. The sum of the length of erosions per stomach was defined as ulcer index (UI).
# The effect obtained when 100 mg/kg of the sample compound had been administered was expressed as ulcer formation inhibitory rate (%) as follows:
# ulcer formation inhibitory rate (%)=(1-(UI in sample group/UI in control
# gastric mucosa = experiment: PD: Gastric Mucosal Integrity Test; format: in vivo, rat (male CDj:SD); set-up: key: 5: Same as the control with no recognizable damage at all.; 4: Though a slight PD-decreasing tendency suggesting a slight possibility of mucosal damage is found, there is no problem.; 3: Though a weak decrease in PD and a possibility of a weak mucosal damage is recognized, there is no substantial problem.; 2: Medium degree of decrease in PD is found and a mucosal damage is recognized.; 1: Heavy degree of decrease in PD is found and a remarkable mucosal damage is recognized; conditions: rat, 100 mg/kg into chamber, 60 minutes
# Method: PD: Gastric Mucosal Integrity Test
# In this case, since the sample compound has a necrotizing effect, it is inappropriate as an anti-ulcer medicament.
# Therefore, the gastric mucosal potential difference (PD), which reflects the integrity of the gastric mucosa, is measured so as to confirm that the sample compound has no damaging effect on gastric mucosa, which is toxicity at gastric mucosal level.
# Male CDj:SD rats (7 to 8-week-old) were fasted overnight, but allowed free access to water, and then, under urethane anesthesia (1.25 g/kg, i.p.), fixed to a cork board on its back. The abdomen of each rat was incised, and a small incision was made in the forestomach. Then, the inside of the stomach was washed with physiological saline heated at 37° C. From the forestomach, along the greater curvature thereof, the stomach was incised without damaging blood vessels. After the height of the cork board was adjusted on a jack, the stomach was mounted on ex vivo chamber. The area of the gastric mucosa exposed to the inside of this chamber was 2.5 cm^2. The inside of the chamber was perfused with physiological saline warmed at 37° C. by micro tube pump. By using an agar bridge containing 3M KCl, the potential difference between the chamber and the abdominal cavity was measured by a PD meter. Here, the rectal temperature was measured to control the body temperature during the experiment. […] To a control, the vehicle was administered.
# The change in PD during 60 minutes after the administration of 100 mg/kg of the sample compound was collectively studied and, with reference to the positive control, classified into 5 levels as follows:
# 5: Same as the control with no recognizable damage at all.
# 3: Though a weak decrease in PD and a possibility of a weak mucosal damage is recognized, there is no substantial problem.
# 2: Medium degree of decrease in PD is found and a mucosal damage is recognized.
# 1: Heavy degree of decrease in PD is found and a remarkable mucosal damage is recognized.
SMILES,TAO: total acid output inhibitory rate [1] [%],VOL: gastric juice volume inhibitory rate [1] [%],WIS: ulcer formation inhibitory rate [2] [%],PD: change in gastric mucosal potential difference (5 levels) (gastric mucosa)
"COc1ccc(NCCNC(=O)c2ccc(OC/C=C(\C)CCC=C(C)C)cc2)nc1 [Example 8, 2-[2-(4-geranyloxybenzoylamino)ethylamino]-5-methoxypyridine]",-7,7,55,5
"CC(C)=CCC/C(C)=C/COc1ccc(C(=O)Nc2cccnc2)cc1 [Example 4, 3-(4-geranyloxybenzoylamino)pyridine]",,,39,5
"CC(C)=CCOc1ccc(OCC=C(C)C)c(C(=O)NCCc2ccncc2)c1 [Example 6, 4-[2-(2,5-diprenyloxybenzoylamino)ethyl]pyridine]",,,48,5
"CC(C)=CCC/C(C)=C/COc1ccc(C(=O)NCCc2ccncc2)cc1 [Example 2, 4-[2-(4-geranyloxybenzoylamino)ethyl]pyridine]",25,17,77,3
"CC(C)=CCC/C(C)=C/COc1ccc(C(=O)NCCNc2cc(C)cc(C)n2)cc1 [Example 10, 2,4-dimethyl-6-[2-(4-geranyloxybenzoylamino)ethylamino]pyridine]",,,55,3
"CC(C)=CCC/C(C)=C/COc1ccc(C(=O)NCC(=O)Nc2ccccn2)cc1 [Example 13, 2-[2-(4-geranyloxybenzoylamino)acetylamino]pyridine]",,,33,5
"CC(C)=CCC/C(C)=C/COc1ccc(C(=O)NCCNc2cccnc2)cc1 [Example 7, 3-[2-(4-geranyloxybenzoylamino)ethylamino]pyridine]",,,81,3
"CC(C)=CCC/C(C)=C/COc1ccc(C(=O)NCc2ccncc2)cc1 [Example 3, 4-(4-geranyloxybenzoylaminomethyl)pyridine]",,,61,3
"CC(C)=CCC/C(C)=C/COc1ccc(C(=O)NCCc2ccccn2)cc1 [Example 1, 2-[2-(4-geranyloxybenzoylamino)ethyl]pyridine]",8,4,50,5
"COc1ccc(SCCNC(=O)c2ccc(OC/C=C(\C)CCC=C(C)C)cc2)nc1 [Example 11, 2-[2-(4-geranyloxybenzoylamino)ethylthio]-5-methoxypyridine]",,,61,4
